The values that follow are results of earlier work, collected in patent US20260248891A1, “TIRZEPATIDE COMPOSITIONS AND USE” (Eli Lilly and Company, priority 2022, published 2026).

The subject of the data set is patients with obesity or overweight. The note with it: Phase 3 study, currently approved doses.

For tirzepatide, the weight loss is recorded as 15.7%.
